Source: patent US10758522B2, “Small molecule analogs of the nemo binding peptide” (THE SCRIPPS RESEARCH INSTITUTE, priority 2015, dated 2020)
pIC50: −log10 of the molar value.

Assays:
[1] = system: NF-κB target genes; assay: qRT-PCR of NF-κB target genes in LPS-stimulated Raw 264.7 cells; type: cell-based, mouse; details: for transcription of NF-κB target genes (COX2, IL-6, IL-1β, TNF-α, IκBα, iNOS): Raw 264.7, 1 ug/ml LPS 2 hr, mimetics 50 μM, IKKi VII 2 μM, 8K-NBD 400 μM
Procedure: Effect of the NBD mimetics on expression of NF-kB regulated genes in the Raw mouse macrophage cell line. Treatment of the Raw cells with the indicated drugs prior to addition of LPS reduced NF-kB-mediated gene expression as measured by RT-PCR.
To determine whether the inhibitory effect of the mimetics is TNF-α-dependent, LPS-mediated NF-κB activation via TLR4 was examined to determine a broader inhibitory effect of the novel NBD mimetics. NF-κB was stimulated in Raw 264.7 by 1 ug/ml of LPS for 2 hr and genes transcriptionally regulated by NF-κB were determined by qRT-PCR analysis. Both an IKK active site inhibitor IKKi VII (2 μM) and the 8K-NBD peptide (400 μM) were included as positive controls and the expression of COX2, IL-6, IL-1β, TNF-α, IκBα and iNOS were assessed.
Raw 264.7 cells were treated with a 50 μM solution of the SR compound for 30 minutes, and then the mRNA was harvested 2 hours after addition of 1 μg/mL LPS.
Snap frozen tissues were preserved in RNAlater RNA stabilization solution (ThermoFisher) before processed. Total RNA was extracted from cells or tissues using TRIZOL reagent (Life Technologies) and 1500 ng of messenger RNA (mRNA) was subjected to synthesize complementary DNA (cDNA) using SuperScript VILO cDNA synthesis kit. qRT-PCR was performed in a StepOnePlus Real-Time PCR system using Platinum SYBR Green qPCR SuperMix-UDG (ThermoFisher). Target gene expression was calculated using the comparative CT method (ΔΔCT) and normalized to an internal control gene Actb (β-actin). Primers used are as follows: Ptgs2 (COX-2) forward: […]; Ptgs2 (COX-2) reverse: […]; Nfkbia (IκBα) forward: […]; Nfkbia (IκBα) reverse: […]; Il1b (IL-1β) forward: […]; Il1b (IL-1β) reverse: […]; Nos2 (iNOS) forward: […]; Nos2 (iNOS) reverse: […]; Tnf (TNF) forward: […]; Tnf (TNF) reverse: […]; Il6 (IL-6) forward: […]; Il6 (IL-6) reverse: […]. Actb (β-actin) forward: […]; Actb (β-actin) reverse: […];

[2] = biological target: NEMO (Homo sapiens, UniProt Q9Y6K9); details: cited from earlier work; for pIC50: read-out: IC50, affinity to NEMO
Chain of NEMO (Q9Y6K9 whole entry, species assumed): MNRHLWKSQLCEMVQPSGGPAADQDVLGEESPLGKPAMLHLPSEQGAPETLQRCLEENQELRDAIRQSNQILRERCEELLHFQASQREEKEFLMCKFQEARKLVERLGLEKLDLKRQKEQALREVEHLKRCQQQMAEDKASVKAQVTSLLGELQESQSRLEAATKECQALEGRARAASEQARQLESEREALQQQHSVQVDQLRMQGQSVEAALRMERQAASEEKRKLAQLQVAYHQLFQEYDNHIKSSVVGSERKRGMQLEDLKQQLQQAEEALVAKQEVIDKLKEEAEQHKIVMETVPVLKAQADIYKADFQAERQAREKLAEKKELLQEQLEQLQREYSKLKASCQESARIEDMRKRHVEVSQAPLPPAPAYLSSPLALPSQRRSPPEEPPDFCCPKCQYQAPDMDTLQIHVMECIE

[3] = system: IL-6; assay: IL-6 ELISA in LPS-stimulated Raw 264.7 cells; type: cell-based, mouse; details: Raw 264.7, 1 ug/ml LPS, supernatant at 24 hr
Procedure: To confirm the qRT-PCR result, LPS-mediated IL-6 production was analyzed in Raw 264.7 cells by ELISA. […] Moreover, SR11481 appears to work more efficiently at a lower concentration around 25 μM. Taken together, four lead compounds were identified through seven rounds of optimization and modification.
Enzyme-Linked Immunosorbent Assay (ELISA). Raw264.7 cells were grown in a 96-well plate and pretreated with vehicle, IKKi VII (2 uM) and small molecules (at indicated concentration) for 1 hr, followed by the stimulation with 1 ug/ml of LPS. Supernatant was collected 24 hr later for ELISA analysis. IL-6 concentration was measured using a mouse IL-6 ELISA kit (BD) according to the manufacturer's instructions.

[4] = system: IKKβ-NEMO interaction; assay: Immunoprecipitation of NEMO and IKKβ immunoblot in Raw 264.7 macrophages and HEK293 cells; type: cell-based; details: Raw 264.7 macrophages / HEK293; mimetics 100 μM, 8K-NBD 400 μM
Procedure: The NBD mimetics reduce the interaction between IKKg (NEMO) and IKKß. The indicated concentrations of the drugs were added to HEK 293 or Raw 264.7 cells and cell extracts prepared 30 minutes later. Following immunoprecipitation (IP) of NEMO, the Western was probed for IKKß.
After treatment with the mimetics or NBD peptide, NEMO was immunoprecipitated by an anti-NEMO antibody and IKKβ was immunoblotted to determine the binding of IKKβ to NEMO.
HEK293 or Raw264.7 cells were seeded at 1×10^6 cells/well in 6-well plates and treated with vehicle, small molecule or NBD peptide for indicated time. Cells were lysed in NP-40 lysis buffer supplemented with 1× protease inhibitor cocktails (sigma). Protein was immunoprecipitated by incubating 150 μg of lysate with 1 μg of anti-NEMO antibody (Santa Cruz) on a rotating shaker at 4° C. for 4 hrs, followed by incubation with 20 ul of Protein A agarose beads (ThermoFisher) for 1 hr. Beads were washed in NP40 buffer 3 times and PBS once. Protein was then denatured in SDS-sample buffer and resolved by MINI-PROTEAN TGX 4-15% SDS-PAGE. Anti-IKKβ (1:1000 CST) was used to assess binding of IKKβ to NEMO and anti-NEMO (1:1000 CST) or IgG were used to as a loading control.

[5] = Pharmacokinetics study after ip injection; type: in vivo; details: mice, 10 mg/kg ip, 2 hr
Procedure: To determine the stability of the NBD mimetics in vivo, the pharmacokinetics of the compounds was determined in serum following ip injection.
The pharmacokinetic profiles of the NBD mimetics were determined in male C57BL/6J mice (n=3). The drugs were formulated in 10:10:80 of DMSO:Tween 80:water and were dosed by intraperitoneal injection at a final dose of 10 mg/kg. Blood, brain, muscle, spleen, and liver were collected 2 hr post-treatment and were analyzed by mass spectrometry by following the protocol described in ref. 215 (42).

[6] = biological target: T1, IKK complex (IKKß, IKKα and NEMO) (Homo sapiens, UniProt Q9Y6K9); assay: Co-immunoprecipitation of NEMO with IKKß in 293 cells; type: cell-based; details: Zinc-5 at 4 hours, Zinc-13 at 1 hour, NBD peptide at 4 hours
T1 construct: analyzed by Western blot for the level of co-precipitated NEMO; endogenous in cells; host or cells: 293 (HEK293) cells
T1 sequence (Q9Y6K9 whole entry, one chain of several): as the sequence (Q9Y6K9 whole entry, species assumed) above
Excerpt: FIG. 8 is a bar graph showing the inhibition of TNFα by NBDA-1 (Zinc-13). […] In addition, we have examined the ability of the compounds to disrupt the IKK complex, comprised of IKKß, IKKα and NEMO.
A non-functional, related compound Zinc-7 had no effect.

[7] = system: NF-κB; assay: Firefly luciferase NF-κB reporter assay in TNF-α-stimulated HEK293 cells; type: cell-based; details: 293 NF-κB luciferase reporter cells, 10 ng/ml TNF-α; compound 12909780 at 100 μM
Procedure: This model was used to screen a subset of the drug-like ZINC 8.0 database set (˜900,000 compounds) (Irwin et al., 2005). We were able to identify 161 hits that matched at least 6 features out of eight of the pharmacophore model. […] Two compounds termed NBDA-1 (Zinc-13) and NBDA-2 (Zinc-5), successfully passed these filters (See FIG. 4) and were purchased for biological testing. The compounds were then tested for ability to inhibit TNF-alpha-mediated induction of NF-κB activity in a 293 cells stably modified with a NF-κB luciferase reporter.
The activation of NF-κB was then quantitated by measuring the level of luciferase activity. […] Also, protein extracts were prepared from the same cells and the level of phospho-IkB determined, a marker of IKK activity.
To test if the small molecules identified by the in silico screen inhibit NF-κB activation, a HEK293 cell line stably expressing a luciferase reporter driven by a synthetic, NF-κB-dependent promoter was utilized. To induce NF-κB activation, cells were treated with 10 ng/ml of TNF-α and harvested three hours post-treatment for analysis of luciferase activity. […] To determine if compound 12909780 inhibited NF-κB in a dose dependent manner, concentrations were tested at 0, 6.25, 25, 50 and 100 μM.
HEK293 cells stably transfected with luciferase reporter plasmid driven by NF-κB were seeded in 96-well plate in triplicate and pretreated with DMSO or varying small molecules at indicated concentration for 30 min, followed by the stimulation of 10 ng/ml of TNFα for 3 hr. Cell were washed with PBS once and harvested in passive lysis buffer. Luciferase assay (Promega) was performed using a luminometer according to the manufacturer's instructions.

[8] = system: embryonic fibroblasts from Ercc1−/− mice; assay: Senescence rescue assay in ERCC1-deficient murine embryonic fibroblasts (SA-ß-gal); type: cell-based, mouse; details: oxidative stress conditions (20% O2)
Excerpt: In an attempt to identify new drugs able to improve healthspan, we have developed an assay for screening for drugs able to rescue primary “aged” fibroblasts from senescence. This assay uses murine embryonic fibroblasts (MEFs) from mice with accelerated aging due to a deficiency in an important DNA repair pathway, ERCC1-XPF. These MEFs undergo rapid senescence in culture, especially when grown under the high oxygen conditions that confers oxidative stress (FIGS. 18 and 19).

O=C(c1ccc(Nc2nccc(-c3cc4ccccc4s3)n2)cc1)N1CCC(N2CCCC2)CC1 [IKKi VII, reference compound]
transcription of NF-κB target genes (COX2, IL-6, IL-1β, TNF-α, IκBα, iNOS) [1]: able to inhibit most NF-κB target gene expression
iNOS expression ([1]; Raw 264.7, LPS): failed to downregulate iNOS expression

IKKβ-derived peptide (701-746): longer IKKβ-derived peptide (701-746) containing all residues and domains (PAKKSEELVAEAHNLCTLLENAIQDTVREQDQSFTALDWSWLQTEE; UniProt O14920 701-746, looked up, fragment)
pIC50 [2]: ~8.00

O=C(COCCc1cc(F)cc(F)c1)Nc1ccc(Cl)cn1 [SR12454, N-(5-chloropyridin-2-yl)-2-(3,5-difluorophenethoxy)acetamide]
LPS-mediated mIL-6 production (ELISA) [3]: decreasing by half at 25 μM
transcription of NF-κB target genes (COX2, IL-6, IL-1β, TNF-α, IκBα, iNOS) [1]: significantly downregulate the transcription of all NF-κB target genes tested
disruption of IKKβ-NEMO interaction (NEMO IP, IKKβ blot) [4]: disruption of the association between NEMO and IKK-β
stability in serum after ip injection [5]: moderate stability

mutated 11-mer NBD peptide (735-745): 11-mer NBD peptide with substitutions of arginine for W741 and W739 (TALDRSRLQTE; NEMO binding domain; UniProt O14920 735-745, looked up, variant W739R W741R)
binding to NEMO ([2]; W741 and W739 substituted by arginine): unable to bind to NEMO

O=C(COC(=O)c1c2ccccc2cc2ccccc12)Nc1ncc(C(F)(F)F)cc1Cl [ZINC7, anthracene-9-carboxylic-acid-[2-[[3-chloro-5-(trifluoromethyl)-2-pyridyl]amino]-2-keto-ethyl]-ester]
level of NEMO co-immunoprecipitated with IKKß [6]: had no effect

O=C(COC(=O)Cc1ccccc1)Nc1ncc(Cl)cc1Cl [ZINC9, 2-phenylacetic-acid-[2-[(3,5-dichloro-2-pyridyl)amino]-2-keto-ethyl]-ester]
inhibition of TNF-α-induced NF-κB activation (luciferase reporter), in words [7]: lowered NF-κB activity robustly

traditional 11 amino acid NEMO binding domain peptide of IKKβ, amino acids 735-745, TALDWSWLQTE [11-mer NBD peptide]
pIC50 [2]: ~4.00

CC(Cc1ccc(O)c(O)c1)C(C)Cc1ccc(O)c(O)c1 (centres unmarked) [NDGA]
senescence (SA-ß-gal staining) of ERCC1-deficient MEFs [8]: most effective for rescuing senescence

O=C(COC(=O)Cc1cc(F)cc(F)c1)Nc1ccc(Cl)cn1 [SR11481, 2-((5-chloropyridin-2-yl)amino)-2-oxoethyl 2-(3,5-difluorophenyl)acetate]
LPS-mediated mIL-6 production (ELISA) [3]: reduction in the accumulation of IL-6 protein at 24 hr
transcription of NF-κB target genes (COX2, IL-6, IL-1β, TNF-α, IκBα, iNOS) [1]: failed to suppress all NF-κB target genes
disruption of IKKβ-NEMO interaction (NEMO IP, IKKβ blot) [4]: disruption of the association between NEMO and IKK-β
stability in serum after ip injection [5]: extremely unstable with undetectable levels at 2 hr

CC(=O)Oc1ccccc1C(=O)O [aspirin]
senescence (SA-ß-gal staining) of ERCC1-deficient MEFs [8]: most effective for rescuing senescence
